Test results taken from patent US4435583A, “2-Halo-substituted monic acid A useful as antibacterial compounds” (Beecham Group p.l.c., priority 1981, dated 1984).
Values after ≈ are worked out from the molar mass of the structure shown.

Key:
Format in all cases: cell-based
M. suipneumoniae JF435 = assay: In vitro anti-mycoplasmal MIC; details: Friis broth, 0.9% agarose, 6 days, 37° C.
M. suipneumoniae HK(2) = assay: In vitro anti-mycoplasmal MIC; details: Friis broth, 0.9% agarose, 6 days, 37° C.
M. suipneumoniae Str.11 = assay: In vitro anti-mycoplasmal MIC; details: Friis broth, 0.9% agarose, 6 days, 37° C.
[1] = tested on: M. suipneumoniae J2206/183b; assay: In vitro anti-mycoplasmal MIC; details: Friis broth, 0.9% agarose, 6 days, 37° C.
M. suipneumoniae LABER = assay: In vitro anti-mycoplasmal MIC; details: Mesomycoplasma hyopneumoniae, 144 h, Friis broth, 0.9% agarose, 6 days, 37° C.
M. suipneumoniae TAM 6N = assay: In vitro anti-mycoplasmal MIC; details: Friis broth, 0.9% agarose, 6 days, 37° C.
[2] = tested on: M. suipneumoniae ATCC 25095; assay: In vitro anti-mycoplasmal MIC; details: Friis broth, 0.9% agarose, 6 days, 37° C.
M. hyorhinis ATCC 25021 = assay: In vitro anti-mycoplasmal MIC; details: Mesomycoplasma hyorhinis, ATCC25021, 144 h, Friis broth, 0.9% agarose, 6 days, 37° C.
[3] = tested on: M. hyosynoviae ATCC 25591; assay: In vitro anti-mycoplasmal MIC; details: 144 h, Friis broth, 0.9% agarose, 6 days, 37° C.
M. dispar NCTC 10125 = assay: In vitro anti-mycoplasmal MIC; details: 144 h, Friis broth, 0.9% agarose, 6 days, 37° C.
M. pneumoniae ATCC 15492 = assay: In vitro anti-mycoplasmal MIC; details: Mycoplasmoides pneumoniae, ATCC15492, 144 h, Friis broth, 0.9% agarose, 6 days, 37° C., read-out: MIC
Bord. bronchiseptica B09 = assay: MIC against veterinary bacteria; details: Diagnostic Sensitivity Test Agar, 18 hours, 37° C.
Protocol: (§1) The values were determined using a two fold serial dilutions in Diagnostic Sensitivity Test Agar with an inoculum of 10^4 organisms and incubation for 18 hours at 37° C.

E. coli E1 = assay: MIC against veterinary bacteria; details: Escherichia coli, Diagnostic Sensitivity Test Agar, 18 hours, 37° C., read-out: MIC
Protocol: as §1

[4] = tested on: Erysipelothrix rhusiopathiae NCTC 8163; assay: MIC against veterinary bacteria; details: NCTC8163, Diagnostic Sensitivity Test Agar, 18 hours, 37° C., read-out: MIC
Protocol: as §1

Past. multocida PA2 = assay: MIC against veterinary bacteria; details: Diagnostic Sensitivity Test Agar, 18 hours, 37° C.
Protocol: as §1

S. typhimurium S18 = assay: MIC against veterinary bacteria; details: Salmonella enterica, Diagnostic Sensitivity Test Agar, 18 hours, 37° C., read-out: MIC
Protocol: as §1

Staph. aureus 152 = assay: MIC against veterinary bacteria; details: Diagnostic Sensitivity Test Agar, 18 hours, 37° C.
Protocol: as §1

Staph. aureus B4 = assay: MIC against veterinary bacteria; details: Diagnostic Sensitivity Test Agar, 18 hours, 37° C.
Protocol: as §1

Strep. agalactiae SPA1 = assay: MIC against veterinary bacteria; details: Diagnostic Sensitivity Test Agar, 18 hours, 37° C.
Protocol: as §1

[5] = tested on: Strep. suis (group D) SPS11; assay: MIC against veterinary bacteria; details: Diagnostic Sensitivity Test Agar, 18 hours, 37° C.
Protocol: as §1

Strep. uberis SPU1 = assay: MIC against veterinary bacteria; details: Strep. uberis SPU1; Diagnostic Sensitivity Test Agar; 18 hours, 37° C.
Protocol: as §1

## CCOC(=O)C(F)=C(C)CC1OCC(CC2OC2C(C)C(C)O)C(O)C1O [Example 1, Ethyl-4-[5S-(2S,3S-epoxy-5S-hydroxy-4S-methylhexyl)-3R, 4R-dihydroxytetrahydropyran-2S-yl]-2-fluoro-3-methylbut-2(Z)-enoate]
M. suipneumoniae JF435
  MIC: 0.5 mg/L (≈ 1.28 µM)
M. suipneumoniae HK(2)
  MIC: 0.5 mg/L (≈ 1.28 µM)
M. suipneumoniae Str.11
  MIC: 0.5 mg/L (≈ 1.28 µM)
[1]
  MIC: 0.5 mg/L (≈ 1.28 µM)
M. suipneumoniae LABER
  MIC: 0.25 mg/L (≈ 0.64 µM)
M. suipneumoniae TAM 6N
  MIC: 0.5 mg/L (≈ 1.28 µM)
[2]
  MIC: 0.5 mg/L (≈ 1.28 µM)
M. hyorhinis ATCC 25021
  MIC: 0.25 mg/L (≈ 0.64 µM)
[3]
  MIC: 0.25 mg/L (≈ 0.64 µM)
M. dispar NCTC 10125
  MIC: 0.1 mg/L (≈ 0.256 µM)
M. pneumoniae ATCC 15492
  MIC: 5 mg/L (≈ 12.8 µM)
Bord. bronchiseptica B09
  MIC: 20.0 mg/L (≈ 51.2 µM)
E. coli E1
  MIC: > 80 mg/L
[4]
  MIC: 80 mg/L (≈ 205 µM)
Past. multocida PA2
  MIC: 0.63 mg/L (≈ 1.61 µM)
S. typhimurium S18
  MIC: > 80 mg/L
Staph. aureus 152
  MIC: 0.63 mg/L (≈ 1.61 µM)
Staph. aureus B4
  MIC: 0.63 mg/L (≈ 1.61 µM)
Strep. agalactiae SPA1
  MIC: 2.5 mg/L (≈ 6.4 µM)
[5]
  MIC: 20.0 mg/L (≈ 51.2 µM)
Strep. uberis SPU1
  MIC: 0.63 mg/L (≈ 1.61 µM)
